Literature values, collected in patent US20250064735A1, “CONTAINER SYSTEM AND PHARMACEUTICAL FOAM COMPOSITION COMPRISING BETAMETHASONE” (Glenmark Pharmaceuticals Limited, priority 2018, published 2025).

| pH at which the substance is stable | SMILES |
| --- | --- |
| 4-6 | CC1C[C@H]2[C@@H]3CCC4=CC(=O)C=C[C@]4(C)[C@@]3(F)C(O)C[C@]2(C)[C@@]1(O)C(=O)CO (some centres unmarked) [Betamethasone, 9-fluoro-11,17,21-trihydroxy-16-methylpregna-1,4-diene-3,20-dione] |
| greater than 8 | C=C1/C(=C\C=C2/CCC[C@]3(C)[C@@H]([C@H](C)/C=C/[C@@H](O)C4CC4)CC[C@@H]23)C[C@@H](O)C[C@@H]1O [Calcipotriene] |
